Key:
[1] = Adverse effects during multiple CLM treatment; assay type: in vivo, healthy beagles (dogs); conditions: CLM about 10 mg/kg PO twice daily for ten days; three healthy beagles
[2] = CLM 10 mg/kg PO, healthy beagles, not steady state; cited from earlier work

For CC[C@H]1OC(=O)[C@H](C)[C@@H](O[C@H]2C[C@@](C)(OC)[C@@H](O)[C@H](C)O2)[C@H](C)[C@@H](O[C@@H]2O[C@H](C)C[C@H](N(C)C)[C@H]2O)[C@](C)(OC)C[C@@H](C)C(=O)[C@H](C)[C@@H](O)[C@]1(C)O [CLM, Clarithromycin], the “adverse effects associated with CLM, such as gastrointestinal irritation” value [1] is given as “no adverse effects” and the serum concentrations [2] is given as “approximately 3 µg/ml”.

Reference: article PMC4013371 (The Journal of Veterinary Medical Science, 2013)
